The values below come from patent publication US20200352912A1, “ANTIMICROBIAL COMPOSITIONS AND METHODS OF USING THE SAME” (The Board Of Supervisors Of Louisiana State University And …, priority 2018, published 2020).

The target of one data set is EP2 (Homo sapiens, UniProt P43116). Particulars: cited from earlier work.
For another data set, the target named is IP (Homo sapiens, UniProt P43119). Particulars: cited from earlier work.
In a further data set the target is EP3 (Homo sapiens, UniProt P43115). Particulars: cited from earlier work.
Chain of EP3 (P43115 whole entry): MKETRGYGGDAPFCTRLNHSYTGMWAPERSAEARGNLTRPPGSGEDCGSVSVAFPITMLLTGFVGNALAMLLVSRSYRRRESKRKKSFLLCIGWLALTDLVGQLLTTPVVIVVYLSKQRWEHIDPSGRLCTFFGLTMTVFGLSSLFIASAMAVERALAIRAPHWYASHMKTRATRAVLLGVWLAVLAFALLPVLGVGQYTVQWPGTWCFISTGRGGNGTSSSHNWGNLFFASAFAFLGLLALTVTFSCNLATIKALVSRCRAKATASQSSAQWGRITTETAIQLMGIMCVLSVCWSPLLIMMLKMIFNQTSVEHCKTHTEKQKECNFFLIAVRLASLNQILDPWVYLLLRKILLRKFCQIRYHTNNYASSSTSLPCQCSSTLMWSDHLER
Data set [1] relates to PGE2-stimulated bone formation. The conditions noted are these: 10 mg/kg/day, young rats; cited from earlier work.
Another data set has as its system S. aureus. Put plainly: ATP detection assay (BacTiter-Glo). The conditions noted are these: 12.5-200 μg/ml, 5 h. The format is cell-based, Staphylococcus aureus. The protocol: S. aureus was incubated with various concentrations of L-161,982 in a 96-well plate in triplicate for 5 h at 37° C. ATP production was measured in samples normalized to viable cell number using the BacTiter-Glo™ Assay (Promega) and measuring luminescence. Background luminescence from media alone samples was subtracted from experimental samples. Results represent the means+/−standard deviation. Data shown are representative of two independent experiments. ** p<0.01; *** p<0.001 control vs drug-treated.
ATP detection assay. S. aureus was diluted 100-fold in 10 ml of fresh Mueller Hinton II broth which was used as the inoculum. The inoculum was incubated with various concentrations of L-161,982 (12.5-200 μg/ml) in a 96-well plate in triplicate for 5 h at 37° C. After incubation, cells L-161,982 were stained with LIVE/DEAD Baclight bacterial viability stain (Invitrogen) and viable cells were counted. Samples were normalized to viable cell number before transferring to an opaque-walled 96-well plate. An equal volume of BacTiter-Glo™ Reagent (Promega) was added. The plate was allowed to develop for 5 min at room temperature. Luminescence was quantified using a BioTek Synergy 2 plate reader. A media alone control was used to detect background luminescence.

The test system of data set [2] is clinical MRSA and MSSA strains isolated from a patient's catheter. In words: planktonic antimicrobial assay, clinical isolates. In kind it is cell-based, Staphylococcus aureus. How it is done: Effect of COX enzyme inhibitors or PGE2 EP receptor antagonists on microbial growth. The antimicrobial activity of selective COX enzyme inhibitor or PGE2 EP receptor antagonist on the growth of C. albicans DAY185 (A), S. aureus NRS383 (B) and MRSA and MSSA clinical isolates (C). Growth of C. albicans and S. aureus was monitored for up to 24 h in medium alone or supplemented with DMSO or EP receptor antagonists or COX enzyme inhibitor at physiologically relevant concentrations. Data shown are representative of three independent experiments.
Strains and growth conditions. The methicillin-resistant S. aureus strain NRS383 used in all experiments was obtained from the Network on Antimicrobial Resistance in S. aureus (NARSA) data bank. NRS383 is positive for the toxic shock syndrome toxin (tst) and 6-toxin genes. SJ-MRSA 6 and SJ-SA5 are methicillin-resistant (MRSA) and methicillin-sensitive (MSSA) clinical S. aureus strains respectively isolated from a patient's catheter. […]
C. albicans and S. aureus were grown as described above. […] Cells were grown with shaking as described above, and 1 ml aliquots were removed each hour in duplicate and optical density at 600 nm measured (OD600) by spectrophotometer (Biomate 3S, Thermo Scientific).

The conditions of data set [3]: 10 mg/kg body weight; cited from earlier work.
Data set [4] is described as follows: administration of L-161,982 alone to control animals. The format is in vivo, mice. The text has this:
Furthermore, L-161, 982 protected mice against the synergistic lethality induced by co-infection with C. albicans and S. aureus. […] The goal of these studies was to further investigate the antimicrobial mechanism of action (MOA) of L-161, 982, testing mechanisms associated with major classes of antimicrobials.

In the next data set the target is DP (Homo sapiens, UniProt Q13258). Particulars: cited from earlier work.
Chain of DP (Q13258 whole entry): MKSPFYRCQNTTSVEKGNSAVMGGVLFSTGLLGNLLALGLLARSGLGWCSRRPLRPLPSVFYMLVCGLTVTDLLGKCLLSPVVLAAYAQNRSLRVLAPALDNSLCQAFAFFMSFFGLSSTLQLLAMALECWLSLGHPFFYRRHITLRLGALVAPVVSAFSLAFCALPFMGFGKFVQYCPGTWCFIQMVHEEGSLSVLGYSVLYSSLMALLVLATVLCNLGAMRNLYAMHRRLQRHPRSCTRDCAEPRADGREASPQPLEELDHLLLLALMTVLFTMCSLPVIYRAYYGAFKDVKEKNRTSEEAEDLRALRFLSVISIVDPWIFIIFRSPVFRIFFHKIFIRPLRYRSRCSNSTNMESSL
Another data set deals with S. aureus NRS383. Put plainly: growth inhibition kinetics. In kind it is cell-based, Staphylococcus aureus. The protocol: Growth of S. aureus NRS383 was monitored for up to 24 h in medium alone or supplemented with DMSO or 50 μg/ml L-161, 982. After 6 h of coincubation, fresh L-161, 982 was added to growth medium (*). Data shown are representative of three independent experiments.
We next investigated the kinetics of growth inhibition kinetics by L-161, 982 against S. aureus and drug stability. The minimum inhibitory concentration (MIC) of L-161, 982 against planktonic S. aureus was 50 μg/ml while the […] was 100 μg/ml. […] To address whether the loss of inhibition was due to drug degradation over time (half-life), or to adaptation of S. aureus cells to L-161, 982, fresh L-161, 982 (50 μg/ml) was added during the co-incubation.

Chain of EP2 (P43116 whole entry): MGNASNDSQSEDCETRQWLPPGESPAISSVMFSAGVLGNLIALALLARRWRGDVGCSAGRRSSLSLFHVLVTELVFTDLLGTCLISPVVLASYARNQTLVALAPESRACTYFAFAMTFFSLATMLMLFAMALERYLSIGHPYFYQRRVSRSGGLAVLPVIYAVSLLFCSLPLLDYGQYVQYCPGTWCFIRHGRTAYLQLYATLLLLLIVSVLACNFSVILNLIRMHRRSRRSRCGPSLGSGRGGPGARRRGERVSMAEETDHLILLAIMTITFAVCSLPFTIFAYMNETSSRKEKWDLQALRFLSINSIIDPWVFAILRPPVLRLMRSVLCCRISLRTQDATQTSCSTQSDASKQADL
Chain of IP (P43119 whole entry): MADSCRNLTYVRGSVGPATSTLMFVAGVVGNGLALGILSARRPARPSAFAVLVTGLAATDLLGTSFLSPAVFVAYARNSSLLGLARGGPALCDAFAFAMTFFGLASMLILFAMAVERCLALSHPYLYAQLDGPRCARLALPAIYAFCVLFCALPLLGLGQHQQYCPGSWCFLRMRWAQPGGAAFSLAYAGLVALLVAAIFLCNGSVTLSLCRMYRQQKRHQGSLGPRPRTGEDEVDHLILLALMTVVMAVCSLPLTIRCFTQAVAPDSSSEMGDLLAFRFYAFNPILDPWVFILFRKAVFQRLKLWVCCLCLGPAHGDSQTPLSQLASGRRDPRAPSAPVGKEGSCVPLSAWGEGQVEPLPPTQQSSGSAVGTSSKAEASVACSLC

Take `CCCCc1nn(-c2ccccc2C(F)(F)F)c(=O)n1Cc1ccc(-c2ccccc2S(=O)(=O)NC(=O)c2sccc2C)cc1` [L-161, 982, N-[[4′-[[3-Butyl-1,5-dihydro-5-oxo-1-[2-(trifluoromethyl)phenyl]-4H-1,2,4-triazol-4-yl]methyl][1,1′-biphenyl]-2-yl]sulfonyl]-3-methyl-2-thiophenecarboxamide]: the inhibition constant Ki on EP2 was 23 µM; at IP it was 6.7 µM; at EP3, 1.9 µM; on DP it was 5.1 µM. Besides, in data set [1], the “effect on PGE2-stimulated bone formation” value is “suppresses”. Besides, in the data set with S. aureus, the ATP production entry is listed as “significantly inhibited ATP production”. Moreover, the “growth of clinical MRSA and MSSA strains” value in [2] was “inhibited growth”. The toxic effects entry in [3] is reported as “no apparent toxic effects”. Further, in [4], the “morbidity or mortality in control animals” value was “no morbidity or mortality”. In data set [4], the “overt signs of toxicity” value is on record as “did not cause any overt signs of toxicity”. For the same compound, the “inhibition when fresh L-161, 982 is added during co-incubation” value in the data set on S. aureus NRS383 (50 μg/ml, fresh 50 μg/ml after 6 h) was “maintained inhibition over a 24 h period”. In addition, in the data set with S. aureus NRS383 (at the MIC of 50 μg/ml), the “duration of inhibitory effect on S. aureus” value was ≤ 8 h.
